Assay results as given in publication PMC5218480 (PLoS ONE, 2017).

Tested on: MV-4-11 cells
Assay: Gene expression microarray analysis (Affymetrix PrimeView) and GSEA
Type: cell-based, human
Set-up: RFU PODN (11730768_x_at) / Fold change /veh PODN (11730768_x_at) / RFU LINC00158 (11744669_a_at) / Fold change /veh LINC00158 (11744669_a_at) / RFU DUSP10 (11751237_a_at) / Fold change /veh DUSP10 (11751237_a_at) / RFU ID3 (11757404_x_at) / Fold change /veh ID3 (11757404_x_at) / RFU PLEKHG5 (11737974_s_at) / Fold change /veh PLEKHG5 (11737974_s_at) / RFU LRRC4B (11730491_at) / Fold change /veh LRRC4B (11730491_at) / RFU GIMAP4 (11747438_a_at) / Fold change /veh GIMAP4 (11747438_a_at) / RFU KRT8 (11758183_x_at) / Fold change /veh KRT8 (11758183_x_at) / RFU CNN1 (11734310_a_at) / Fold change /veh CNN1 (11734310_a_at) / RFU VPS37D (11726825_at) / Fold change /veh VPS37D (11726825_at) / RFU C10orf10 (11716522_x_at) / Fold change /veh C10orf10 (11716522_x_at) / RFU KIR2DL2 /// KIR2DL4 /// KIR2DL5A /// KIR2DL5B /// KIR2DS1 /// KIR2DS2 /// KIR2DS3 /// KIR2DS4 /// KIR3DL3 /// KIR3DL3 /// KIR3DS1 (11738374_at) / Fold change /veh KIR2DL2 /// KIR2DL4 /// KIR2DL5A /// KIR2DL5B /// KIR2DS1 /// KIR2DS2 /// KIR2DS3 /// KIR2DS4 /// KIR3DL3 /// KIR3DL3 /// KIR3DS1 (11738374_at) / RFU C1QL1 (11718748_at) / Fold change /veh C1QL1 (11718748_at) / RFU TMPRSS4 (11747572_a_at) / Fold change /veh TMPRSS4 (11747572_a_at) / RFU HAMP (11756126_x_at) / Fold change /veh HAMP (11756126_x_at) / RFU RNFT2 (11725882_a_at) / Fold change /veh RNFT2 (11725882_a_at) / RFU NR4A2 (11747474_a_at) / Fold change /veh NR4A2 (11747474_a_at) / RFU ABCC12 (11746883_a_at) / Fold change /veh ABCC12 (11746883_a_at) / RFU TMEM136 (11760407_x_at) / Fold change /veh TMEM136 (11760407_x_at) / RFU CLDN22 /// WWC2 (11732394_at) / Fold change /veh CLDN22 /// WWC2 (11732394_at) / RFU HLA-DPB1 (11760878_x_at) / Fold change /veh HLA-DPB1 (11760878_x_at) / RFU SPINT1 (11716480_a_at) / Fold change /veh SPINT1 (11716480_a_at) / RFU GAP43 (11754022_s_at) / Fold change /veh GAP43 (11754022_s_at) / RFU A4GNT (11735810_at) / Fold change /veh A4GNT (11735810_at) / RFU PRB3 (11715151_x_at) / Fold change /veh PRB3 (11715151_x_at) / RFU TUBB4B (11761932_at) / Fold change /veh TUBB4B (11761932_at) / RFU CAPN14 (11732068_a_at) / Fold change /veh CAPN14 (11732068_a_at) / RFU TMCC2 (11721928_a_at) / Fold change /veh TMCC2 (11721928_a_at) / RFU IRGQ (11745062_a_at) / Fold change /veh IRGQ (11745062_a_at) / RFU FAM174B (11720279_a_at) / Fold change /veh FAM174B (11720279_a_at) / RFU TMPRSS4 (11748680_a_at) / Fold change /veh TMPRSS4 (11748680_a_at) / RFU FAM212B (11763350_a_at) / Fold change /veh FAM212B (11763350_a_at) / RFU PLEKHG5 (11743358_a_at) / Fold change /veh PLEKHG5 (11743358_a_at) / RFU ZSCAN30 (11745921_a_at) / Fold change /veh ZSCAN30 (11745921_a_at) / RFU CMKLR1 (11741424_a_at) / Fold change /veh CMKLR1 (11741424_a_at) / RFU LOC101060620 /// MAPK8IP1 (11723275_at) / Fold change /veh LOC101060620 /// MAPK8IP1 (11723275_at) / RFU SPTSSB (11747773_x_at) / Fold change /veh SPTSSB (11747773_x_at) / RFU PRSS12 (11739890_at) / Fold change /veh PRSS12 (11739890_at) / RFU BIN1 (11741810_x_at) / Fold change /veh BIN1 (11741810_x_at) / RFU WNT11 (11732464_a_at) / Fold change /veh WNT11 (11732464_a_at) / RFU C10orf10 (11716521_a_at) / Fold change /veh C10orf10 (11716521_a_at) / RFU C5orf56 (11738089_at) / Fold change /veh C5orf56 (11738089_at) / RFU CYB561 (11721691_x_at) / Fold change /veh CYB561 (11721691_x_at) / RFU ANKRD19P (11752326_a_at) / Fold change /veh ANKRD19P (11752326_a_at) / RFU OR2T12 /// OR2T33 /// OR2T8 (11738714_s_at) / Fold change /veh OR2T12 /// OR2T33 /// OR2T8 (11738714_s_at) / RFU VCAN (11748164_a_at) / Fold change /veh VCAN (11748164_a_at) / RFU JSRP1 (11732532_at) / Fold change /veh JSRP1 (11732532_at) / RFU KRTAP10-11 (11738290_x_at) / Fold change /veh KRTAP10-11 (11738290_x_at) / RFU MYO3A (11730013_a_at) / Fold change /veh MYO3A (11730013_a_at) / RFU EBF3 (11725865_a_at) / Fold change /veh EBF3 (11725865_a_at) / RFU CAMK2N1 (11719241_x_at) / Fold change /veh CAMK2N1 (11719241_x_at) / RFU C5orf56 (11738088_a_at) / Fold change /veh C5orf56 (11738088_a_at) / RFU OLFML3 (11715873_a_at) / Fold change /veh OLFML3 (11715873_a_at) / RFU LOC100653217 /// NTM (11731650_a_at) / Fold change /veh LOC100653217 /// NTM (11731650_a_at) / RFU MAPK11 (11762145_a_at) / Fold change /veh MAPK11 (11762145_a_at) / RFU FIZ1 (11724087_x_at) / Fold change /veh FIZ1 (11724087_x_at) / RFU OASL (11726364_x_at) / Fold change /veh OASL (11726364_x_at) / RFU SOX15 (11748057_x_at) / Fold change /veh SOX15 (11748057_x_at) / RFU CD79A (11719716_a_at) / Fold change /veh CD79A (11719716_a_at) / RFU HIST1H1D (11736915_at) / Fold change /veh HIST1H1D (11736915_at) / RFU CASKIN2 (11723855_a_at) / Fold change /veh CASKIN2 (11723855_a_at) / RFU LOC730098 (11760151_x_at) / Fold change /veh LOC730098 (11760151_x_at) / RFU OR4N2 (11742367_at) / Fold change /veh OR4N2 (11742367_at) / RFU PRRT2 (11749266_a_at) / Fold change /veh PRRT2 (11749266_a_at) / RFU SNX32 (11753110_a_at) / Fold change /veh SNX32 (11753110_a_at) / RFU CDHR5 (11726645_a_at) / Fold change /veh CDHR5 (11726645_a_at) / RFU RCAN1 (11760418_a_at) / Fold change /veh RCAN1 (11760418_a_at) / RFU FAM167A (11723789_a_at) / Fold change /veh FAM167A (11723789_a_at) / RFU FAM26E (11764081_at) / Fold change /veh FAM26E (11764081_at) / RFU ISYNA1 (11749810_s_at) / Fold change /veh ISYNA1 (11749810_s_at) / RFU ACY1 (11761880_at) / Fold change /veh ACY1 (11761880_at) / RFU 11764098_at / Fold change /veh 11764098_at / RFU SAMD14 (11745864_x_at) / Fold change /veh SAMD14 (11745864_x_at) / RFU NPB (11741838_a_at) / Fold change /veh NPB (11741838_a_at) / RFU TMPRSS6 (11731388_a_at) / Fold change /veh TMPRSS6 (11731388_a_at) / RFU KRTAP10-2 (11738614_at) / Fold change /veh KRTAP10-2 (11738614_at) / RFU ARHGAP8 /// PRR5-ARHGAP8 (11727945_x_at) / Fold change /veh ARHGAP8 /// PRR5-ARHGAP8 (11727945_x_at) / RFU KRTAP5-7 /// NADSYN1 (11734609_at) / Fold change /veh KRTAP5-7 /// NADSYN1 (11734609_at) / RFU RASL12 (11751679_a_at) / Fold change /veh RASL12 (11751679_a_at) / RFU CDKN2B (11736163_a_at) / Fold change /veh CDKN2B (11736163_a_at) / RFU PRF1 (11729649_at) / Fold change /veh PRF1 (11729649_at) / RFU, ZNF638 /// ZNF638-IT1 / Fold change vs veh, ZNF638 /// ZNF638-IT1 / RFU, PANK3 / Fold change vs veh, PANK3 / RFU, SH3YL1 / Fold change vs veh, SH3YL1 / RFU, ZEB2 / Fold change vs veh, ZEB2 / RFU, NRIP1 / Fold change vs veh, NRIP1 / RFU, PTTG1IP / Fold change vs veh, PTTG1IP / RFU, CAPN2 / Fold change vs veh, CAPN2 / RFU, MED14 / Fold change vs veh, MED14 / RFU, SNORA58 / Fold change vs veh, SNORA58 / RFU, C1orf63 / Fold change vs veh, C1orf63 / RFU, LRRFIP1 / Fold change vs veh, LRRFIP1 / RFU, NDUFAF7 / Fold change vs veh, NDUFAF7 / RFU, SLC12A2 / Fold change vs veh, SLC12A2 / RFU, IBTK / Fold change vs veh, IBTK / RFU, ESF1 / Fold change vs veh, ESF1 / Fold change vs veh, TMEM50B / RFU, TAOK1 / Fold change vs veh, TAOK1 / RFU, ACBD3 / Fold change vs veh, ACBD3 / RFU, TMA16 / Fold change vs veh, TMA16 / RFU, RWDD3 / Fold change vs veh, RWDD3 / RFU, BCAT1 / Fold change vs veh, BCAT1 / RFU, EDEM3 / Fold change vs veh, EDEM3 / RFU, TMEM33 / Fold change vs veh, TMEM33 / RFU, WDR75 / Fold change vs veh, WDR75 / RFU, AHCTF1 / Fold change vs veh, AHCTF1 / RFU, TFRC / Fold change vs veh, TFRC / RFU, ZDHHC17 / Fold change vs veh, ZDHHC17 / RFU, NOM1 / Fold change vs veh, NOM1 / RFU, ARL8B / Fold change vs veh, ARL8B / RFU, ZBTB11 / Fold change vs veh, ZBTB11 / RFU, TAMM41 / Fold change vs veh, TAMM41 / RFU, KIAA1704 /// LOC100996395 / Fold change vs veh, KIAA1704 /// LOC100996395 / RFU, ING1 / Fold change vs veh, ING1 / RFU, TRMT61B / Fold change vs veh, TRMT61B / RFU, FUBP3 / Fold change vs veh, FUBP3 / RFU, TP53 / Fold change vs veh, TP53 / RFU, TNKS2 / Fold change vs veh, TNKS2 / RFU, ZFP14 / Fold change vs veh, ZFP14 / RFU, ACTR2 / Fold change vs veh, ACTR2 / RFU, PPP3R1 / Fold change vs veh, PPP3R1 / RFU, PIK3R1 / Fold change vs veh, PIK3R1 / RFU, HNRNPA1 / Fold change vs veh, HNRNPA1 / RFU, RNF170 / Fold change vs veh, RNF170 / RFU, ZNF28 / Fold change vs veh, ZNF28 / RFU, RNGTT / Fold change vs veh, RNGTT / RFU, OGT / Fold change vs veh, OGT / RFU, BRD1 / Fold change vs veh, BRD1 / RFU, MARS / Fold change vs veh, MARS / RFU, ZNF655 / Fold change vs veh, ZNF655 / RFU, FAHD1 / Fold change vs veh, FAHD1 / RFU, BDP1 / Fold change vs veh, BDP1 / RFU, LRRCC1 / Fold change vs veh, LRRCC1 / RFU, ARID1A / Fold change vs veh, ARID1A / RFU, ZNF146 / Fold change vs veh, ZNF146 / RFU, ZNF330 / Fold change vs veh, ZNF330 / RFU, GPN3 / Fold change vs veh, GPN3 / RFU, C9orf123 / Fold change vs veh, C9orf123 / RFU, N4BP2L2 / Fold change vs veh, N4BP2L2 / RFU, ARFIP1 / Fold change vs veh, ARFIP1 / RFU, FAM179B / Fold change vs veh, FAM179B / RFU, BCL10 / Fold change vs veh, BCL10 / RFU, UHRF1BP1L / Fold change vs veh, UHRF1BP1L / RFU, BET1 / Fold change vs veh, BET1 / RFU, CNOT2 / Fold change vs veh, CNOT2 / RFU, ZNF268 / Fold change vs veh, ZNF268 / Fold change vs veh, ZNF507 / RFU, DGCR2 / Fold change vs veh, DGCR2 / RFU, WDSUB1 / Fold change vs veh, WDSUB1 / Fold change vs veh, HSP90B1 /// MIR3652 / RFU, ADSS / Fold change vs veh, ADSS / RFU, GK / Fold change vs veh, GK / RFU, ZNF148 / Fold change vs veh, ZNF148 / RFU, TAF9 / Fold change vs veh, TAF9 / RFU, SLC1A5 / Fold change vs veh, SLC1A5 / RFU, SLMO2 / Fold change vs veh, SLMO2 / RFU, ABCC4 / Fold change vs veh, ABCC4 / RFU, LOC101060439 /// RAP1B / Fold change vs veh, LOC101060439 /// RAP1B / RFU, RFX7 / Fold change vs veh, RFX7 / RFU, GTPBP10 / Fold change vs veh, GTPBP10 / RFU, CNEP1R1 / Fold change vs veh, CNEP1R1 / RFU, BIVM-ERCC5 /// ERCC5 / Fold change vs veh, BIVM-ERCC5 /// ERCC5 / RFU, ILF3 / Fold change vs veh, ILF3 / RFU 11762660_at / Fold change /veh 11762660_at / RFU VCAN (11757783_s_at) / Fold change /veh VCAN (11757783_s_at) / RFU DDX43 (11728927_at) / Fold change /veh DDX43 (11728927_at) / RFU KRT8 (11758188_x_at) / Fold change /veh KRT8 (11758188_x_at) / RFU NKD1 (11759106_at) / Fold change /veh NKD1 (11759106_at) / RFU SRD5A1 (11742802_a_at) / Fold change /veh SRD5A1 (11742802_a_at) / RFU TPSAB1 /// TPSB2 (11721975_s_at) / Fold change /veh TPSAB1 /// TPSB2 (11721975_s_at) / RFU GSTM3 (11746129_a_at) / Fold change /veh GSTM3 (11746129_a_at) / RFU IL23R (11737362_x_at) / Fold change /veh IL23R (11737362_x_at) / RFU TMEM51 (11727254_a_at) / Fold change /veh TMEM51 (11727254_a_at) / RFU PIWIL2 (11732686_x_at) / Fold change /veh PIWIL2 (11732686_x_at) / RFU ORM1 (11744905_x_at) / Fold change /veh ORM1 (11744905_x_at) / RFU CCDC152 (11743942_at) / Fold change /veh CCDC152 (11743942_at) / RFU ECM1 (11717891_a_at) / Fold change /veh ECM1 (11717891_a_at) / RFU IL23R (11748794_a_at) / Fold change /veh IL23R (11748794_a_at) / RFU TNFAIP8L3 (11732012_x_at) / Fold change /veh TNFAIP8L3 (11732012_x_at) / RFU MBOAT4 (11741988_at) / Fold change /veh MBOAT4 (11741988_at) / RFU 11764193_at / Fold change /veh 11764193_at / RFU TMEM53 (11763286_at) / Fold change /veh TMEM53 (11763286_at) / RFU MAGEB2 (11727129_at) / Fold change /veh MAGEB2 (11727129_at) / RFU TMEM200A (11744735_a_at) / Fold change /veh TMEM200A (11744735_a_at) / RFU CCDC152 (11751479_a_at) / Fold change /veh CCDC152 (11751479_a_at) / RFU FAM211A (11726209_a_at) / Fold change /veh FAM211A (11726209_a_at) / RFU RGS16 (11746705_a_at) / Fold change /veh RGS16 (11746705_a_at) / RFU VCAN (11755009_s_at) / Fold change /veh VCAN (11755009_s_at) / RFU RHOB (11743442_s_at) / Fold change /veh RHOB (11743442_s_at) / RFU RGS16 (11720943_a_at) / Fold change /veh RGS16 (11720943_a_at) / RFU RGS16 (11720944_at) / Fold change /veh RGS16 (11720944_at) / RFU, VPS4B / Fold change vs veh, VPS4B / RFU, CREB1 / Fold change vs veh, CREB1 / RFU, DNAJC13 / Fold change vs veh, DNAJC13 / RFU, GNAQ / Fold change vs veh, GNAQ / RFU, CDK5R1 / Fold change vs veh, CDK5R1 / RFU, ZRANB3 / Fold change vs veh, ZRANB3 / RFU, CUL4A / Fold change vs veh, CUL4A / RFU, CCNY / Fold change vs veh, CCNY / RFU, UFL1 / Fold change vs veh, UFL1 / RFU, COG3 / Fold change vs veh, COG3 / RFU, DIAPH2 / Fold change vs veh, DIAPH2 / RFU, SKA2 / Fold change vs veh, SKA2 / RFU, AFF3 / Fold change vs veh, AFF3 / RFU, LMF1 / Fold change vs veh, LMF1 / RFU, IPO11 / Fold change vs veh, IPO11 / RFU, DFFB / Fold change vs veh, DFFB / RFU, FOXP1 / Fold change vs veh, FOXP1 / RFU, CARD8 / Fold change vs veh, CARD8 / RFU, STRN3 / Fold change vs veh, STRN3 / RFU, ADK / Fold change vs veh, ADK / RFU, RASSF2 / Fold change vs veh, RASSF2 / RFU, WIPF1 / Fold change vs veh, WIPF1 / RFU, LARP1B / Fold change vs veh, LARP1B / RFU, RASA1 / Fold change vs veh, RASA1 / RFU, RB1 / Fold change vs veh, RB1 / RFU, PPFIA1 / Fold change vs veh, PPFIA1 / RFU, MAT2A / Fold change vs veh, MAT2A / RFU, CCT5 / Fold change vs veh, CCT5 / RFU, WDR92 / Fold change vs veh, WDR92 / RFU, CUX1 / Fold change vs veh, CUX1 / RFU, TTC7A / Fold change vs veh, TTC7A / RFU, TMEM135 / Fold change vs veh, TMEM135 / RFU, DEPTOR / Fold change vs veh, DEPTOR / RFU, CPM / Fold change vs veh, CPM / RFU, DNAJB6 / Fold change vs veh, DNAJB6 / RFU, CACNA2D3 / Fold change vs veh, CACNA2D3 / RFU, DTX4 / Fold change vs veh, DTX4 / RFU, TFCP2 / Fold change vs veh, TFCP2 / RFU, GMCL1 /// GMCL1P1 / Fold change vs veh, GMCL1 /// GMCL1P1 / RFU, AEBP2 / Fold change vs veh, AEBP2 / RFU, SNHG1 /// SNORD22 /// SNORD25 /// SNORD26 /// SNORD27 /// SNORD28 /// SNORD29 /// SNORD31 / Fold change vs veh, SNHG1 /// SNORD22 /// SNORD25 /// SNORD26 /// SNORD27 /// SNORD28 /// SNORD29 /// SNORD31 / Fold change (Aza/veh), C12orf56 (ProbeSet 11735607_a_at) / Fold change (ACY-1035/veh), C12orf56 (ProbeSet 11735607_a_at) / Fold change (Aza/veh), FGFR1OP (ProbeSet 11751329_s_at) / Fold change (ACY-1035/veh), FGFR1OP (ProbeSet 11751329_s_at) / Fold change (Aza/veh), VPS36 (ProbeSet 11739960_a_at) / Fold change (ACY-1035/veh), VPS36 (ProbeSet 11739960_a_at) / RFU SYPL1 (11715823_x_at) / Fold change /veh SYPL1 (11715823_x_at) / RFU IGFBP7 (11715501_s_at) / Fold change /veh IGFBP7 (11715501_s_at) / RFU REEP3 (11722064_at) / Fold change /veh REEP3 (11722064_at) / RFU IGLL1 (11728026_x_at) / Fold change /veh IGLL1 (11728026_x_at): dose or concentration left out as unconfirmed
Conditions: MV-4-11 cells, 48 hours

Nc1ccc(-c2cccs2)cc1NC(=O)c1ccc2c(c1)cc(C1CC1)n2CCN1CCOCC1 [ACY-1035]
Fold change /veh EBF3 (11725865_a_at): 1.09
